Results as given in patent US20210347823A1, “METHODS OF PHYSICOCHEMICAL-GUIDED PEPTIDE DESIGN AND NOVEL PEPTIDES DERIVED THEREFROM” (Massachusetts Institute of Technology, priority 2018, published 2021).

Assays:
[1] = Stability assay in fetal bovine serum; assay type: in vitro ADME; conditions: fetal bovine serum, 6 h
Description: FIGS. 6A-6B. Hemolysis and resistance to protease-mediated degradation of engineered peptides. FIG. 6A. Schematic of experimental design and hemolytic assay results of Pol-CP—NH2 and derivatives, where hemolytic activity was evaluated by incubating the peptides (0.1-100 μmol L^−1) with human red blood cells in PBS at room temperature for 1 h. Experiments were performed in triplicate, (*p<0.05). FIG. 6B. Resistance to degradation of Pol-CP—NH2 and analogs exposed to fetal bovine serum (FBS) proteases for 6 h. Experiments were done in triplicate.
Stability Assays. The stability assay was performed with GIBCO fetal bovine serum diluted to 25% in water. 20 ? L of a 10 mg mL^−1 peptide solution was added to 1 mL 25% serum solution and kept at 37° C. The experiments were made in triplicate and 100 ? L aliquots were taken at 0, 0.5, 1, 2, 4 and 6 h. 10 ? L of TFA was added to the aliquots and the new solution was kept at 5° C. for 10 min, after that it was centrifuged at 14,000 rpm for 15 min, according to Powell et al. (Powell M. F. et al., Pharm. Res. 10, 1268-1273 (1993)). The reaction kinetics was followed by liquid chromatography and the percentage of remaining peptide was calculated by integrating the peptide peak area.

[2] = test system: P. aeruginosa strain PA01; experiment: MIC assay (broth microdilution) against P. aeruginosa PA01; assay type: cell-based, Pseudomonas aeruginosa; conditions: P. aeruginosa PA01, 24 h, 37° C.
From the text: (§1) FIGS. 2A-2E. Design, physicochemical features and activity of Pol-CP—NH2 and Ala-scan analogs. FIG. 2A. Theoretical physicochemical properties of interest of the wild type and Ala-scan analogs, where H denotes hydrophobicity, μH is the hydrophobic moment, q represents the net charge and P/N is the ratio of polar/non-polar residues in the sequence. Top to bottom, left to right the sequences correspond to SEQ ID NOs: 1-13. FIG. 2B. Schematic of the in vitro biological activity experimental design. Briefly, 10^4 bacterial cells and serially diluted peptides (0-128 μmol L^−1) were added to a 96-well plate and incubated at 37° C. One day after the exposure, the solution in each well was measured in a microplate reader (600 nm) to check inhibition of bacteria compared to the untreated controls and presented as heat maps of antimicrobial activities (μmol L^−1) against four bacteria strains: E. coli strain BL21, S. aureus strain ATCC12600 and P. aeruginosa strains PA01, and PA14. Assays were performed in triplicates. FIG. 2C. Graph correlating MIC (μmol L^−1) averages vs H and (FIG. 2D) MIC (μmol L^−1) averages vs μH, where dots […] the dashed line show peptides with higher activity compared to the wild type, in which one can observe ranges of optimal activity in determined intervals of H and μH values. FIG. 2E. […]

[3] = test system: Escherichia coli strain BL21; experiment: MIC assay (broth microdilution) against E. coli BL21; assay type: cell-based; conditions: E. coli BL21, 24 h, 37° C.
From the text: as §1

[4] = test system: S. aureus strain ATCC12600; experiment: MIC assay (broth microdilution) against S. aureus ATCC12600; assay type: cell-based, Staphylococcus aureus; conditions: S. aureus ATCC12600, 24 h, 37° C.
From the text: as §1

For “H-ILGTILKLLKSL-NH2 [Peptide 16, ILGTILKLLKSL-NH2]”, the “resistance to protease-mediated degradation” value [1] was “increased resistance to protease-mediated degradation”.

“H-ILGTILGLLKSL-NH2 [WT, ILGTILGLLKSL-NH2, reference compound]” gave an MIC [2] of 64.0 µM, an MIC [3] of 8.0 µM and an MIC [4] of 64.0 µM.
